Data on one molecule can be found in publication PMC12624743 (ACS Infectious Diseases, 2025).

As usually defined, the pIC50 is the negative decadic logarithm of the IC50, by convention in mol/L.

In experiment [1] the target is T1, N. gonorrhoeae gyrase GyrA^D90N (Neisseria gonorrhoeae, UniProt P48371, D90N).
T1 construct: His; made in house
The experiment can be described thus: Gyrase-catalyzed DNA supercoiling assay, GyrA^D90N. The format is biochemical. As to conditions: read-out: IC50, inhibition of DNA supercoiling. Here is the method: (§1) All proteins were His-tagged. N. gonorrhoeae WT gyrase (GyrA, GyrB) and topoisomerase IV (ParC, ParE) subunits as well as mutant GyrA^D90N, GyrA^A92T, GyrA^S91F, and GyrA^S91F/D95G gyrase and ParC^D86N and ParC^S88P topoisomerase IV were prepared as described previously. , N. gonorrhoeae mutant GyrA^D95G gyrase and mutant ParC^S87N and ParC^E91G topoisomerase IV were generated using a QuickChange II XL site-directed mutagenesis kit (Agilent Technologies) with custom primers for the desired mutations. […] The identities of all constructs were confirmed by DNA sequencing, and all enzymes were stored at −80 °C. In all assays, N. gonorrhoeae gyrase or topoisomerase IV was used as a 1:1 GyrA:GyrB or ParC:ParE mixture, respectively, and the stated enzyme concentration reflects that of the holoenzyme (A2B2).
(§2) Samples were mixed with 2 μL of loading dye [60% sucrose, 10 mM Tris–HCl (pH 7.9), 0.5% bromophenol blue, and 0.5% xylene cyanol FF] and incubated at 45 °C for 2 min before being subjected to electrophoresis on 1% agarose gels in 100 mM Tris-borate (pH 8.3) and 2 mM EDTA. […] DNA bands were visualized with medium-range ultraviolet light and quantified using an Alpha Innotech digital imaging system (Protein Simple). DNA supercoiling was monitored by the conversion of relaxed to supercoiled plasmid.

Experiment [2] deals with T2, N. gonorrhoeae gyrase GyrA^D95G (Neisseria gonorrhoeae, UniProt P48371, D95G).
T2 construct: His; made in house
The experiment can be described thus: Gyrase-catalyzed DNA supercoiling assay, GyrA^D95G. The experiment is classed as biochemical. As for the experimental part: as §1, §2

For experiment [3], the system named is WT N. gonorrhoeae topoisomerase IV. In words: Topoisomerase IV-catalyzed DNA decatenation assay, WT. The format is biochemical, Neisseria gonorrhoeae. As to conditions: decatenation IC50 vs supercoiling IC50, WT enzymes. Here is the method: (§3) All proteins were His-tagged. N. gonorrhoeae WT gyrase (GyrA, GyrB) and topoisomerase IV (ParC, ParE) subunits as well as mutant GyrA^D90N, GyrA^A92T, GyrA^S91F, and GyrA^S91F/D95G gyrase and ParC^D86N and ParC^S88P topoisomerase IV were prepared as described previously. , N. gonorrhoeae mutant GyrA^D95G gyrase and mutant ParC^S87N and ParC^E91G topoisomerase IV were generated using a QuickChange II XL site-directed mutagenesis kit (Agilent Technologies) with custom primers for the desired mutations. Mutant N. gonorrhoeae GyrA and ParC subunits were expressed and purified as described by Ashley et al. with the following modifications to optimize protein expression and lysis: (1) GyrA^D95G was expressed for 2.5 h and ParC^S87N and ParC^E91G were expressed for 3 h before harvesting, and (2) cells were lysed by sonication using a digital sonifier (Branson). The identities of all constructs were confirmed by DNA sequencing, and all enzymes were stored at −80 °C. In all assays, N. gonorrhoeae gyrase or topoisomerase IV was used as a 1:1 GyrA:GyrB or ParC:ParE mixture, respectively, and the stated enzyme concentration reflects that of the holoenzyme (A2B2). […]

The target in experiment [4] is T3, N. gonorrhoeae gyrase GyrA^A92T (Neisseria gonorrhoeae, UniProt P48371, A92T).
T3 construct: His; made in house
T3 sequence (P48371 whole entry A92T): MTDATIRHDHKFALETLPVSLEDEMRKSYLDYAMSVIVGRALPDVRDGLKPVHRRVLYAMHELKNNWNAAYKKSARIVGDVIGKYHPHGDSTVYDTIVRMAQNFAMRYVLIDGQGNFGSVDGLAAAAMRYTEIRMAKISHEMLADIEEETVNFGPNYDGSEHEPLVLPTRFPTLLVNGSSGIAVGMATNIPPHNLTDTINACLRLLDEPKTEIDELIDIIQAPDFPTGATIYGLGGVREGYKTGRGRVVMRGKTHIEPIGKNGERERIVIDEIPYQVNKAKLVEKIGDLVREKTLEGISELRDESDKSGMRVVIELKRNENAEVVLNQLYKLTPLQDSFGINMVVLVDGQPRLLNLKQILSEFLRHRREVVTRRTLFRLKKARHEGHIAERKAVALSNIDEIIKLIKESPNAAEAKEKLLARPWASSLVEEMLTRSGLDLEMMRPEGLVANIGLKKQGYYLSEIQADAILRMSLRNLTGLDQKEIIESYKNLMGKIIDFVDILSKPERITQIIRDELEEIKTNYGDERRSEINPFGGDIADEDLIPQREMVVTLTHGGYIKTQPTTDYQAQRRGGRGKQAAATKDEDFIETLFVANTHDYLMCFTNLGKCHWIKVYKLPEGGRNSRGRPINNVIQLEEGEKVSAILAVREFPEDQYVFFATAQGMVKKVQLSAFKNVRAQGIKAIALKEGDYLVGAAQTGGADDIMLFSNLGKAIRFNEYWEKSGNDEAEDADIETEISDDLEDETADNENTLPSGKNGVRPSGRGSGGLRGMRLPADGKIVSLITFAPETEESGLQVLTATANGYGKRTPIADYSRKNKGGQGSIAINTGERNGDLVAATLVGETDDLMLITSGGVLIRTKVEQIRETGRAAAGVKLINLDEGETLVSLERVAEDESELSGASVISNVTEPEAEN
T3 sequence (P22118 whole entry partner): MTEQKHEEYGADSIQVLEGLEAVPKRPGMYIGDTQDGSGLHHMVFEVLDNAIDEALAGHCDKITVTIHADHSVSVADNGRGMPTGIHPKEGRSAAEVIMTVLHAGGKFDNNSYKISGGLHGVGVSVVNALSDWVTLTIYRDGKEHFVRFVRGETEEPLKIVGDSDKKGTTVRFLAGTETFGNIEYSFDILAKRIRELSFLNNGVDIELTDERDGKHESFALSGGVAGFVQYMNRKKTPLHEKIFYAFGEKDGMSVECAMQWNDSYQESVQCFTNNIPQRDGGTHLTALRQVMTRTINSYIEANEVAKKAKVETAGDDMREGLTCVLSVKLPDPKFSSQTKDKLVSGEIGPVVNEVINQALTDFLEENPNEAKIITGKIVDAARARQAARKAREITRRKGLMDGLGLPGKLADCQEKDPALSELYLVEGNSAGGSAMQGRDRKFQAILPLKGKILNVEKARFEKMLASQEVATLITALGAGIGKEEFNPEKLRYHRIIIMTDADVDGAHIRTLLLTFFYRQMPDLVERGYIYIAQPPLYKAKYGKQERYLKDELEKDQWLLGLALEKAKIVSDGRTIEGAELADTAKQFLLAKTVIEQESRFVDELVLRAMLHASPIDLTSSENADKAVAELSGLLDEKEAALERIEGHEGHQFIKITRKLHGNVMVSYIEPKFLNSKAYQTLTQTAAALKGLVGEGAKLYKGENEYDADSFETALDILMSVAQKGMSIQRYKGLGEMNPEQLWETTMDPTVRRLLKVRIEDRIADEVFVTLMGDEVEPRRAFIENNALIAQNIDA
The experiment can be described thus: DNA cleavage assay, GyrA^A92T gyrase. The format is biochemical. As for the experimental part:
(§4) Some experiments replaced MgCl2 with an equivalent concentration of CaCl2 (10 mM), or 1.5 mM ATP was added to assay mixtures.
(§5) Reactions were incubated at 37 °C for 30 min with WT and mutant (GyrA^D90N, GyrA^A92T, GyrA^S91F, GyrA^D95G, or GyrA^S91F/D95G) N. gonorrhoeae gyrase, 10 min with WT N. gonorrhoeae topoisomerase IV, and 20 min with mutant (ParC^D86N, ParC^S88P, ParC^S87N, or ParC^E91G) N. gonorrhoeae topoisomerase IV. Enzyme-DNA cleavage complexes were trapped by adding 2 μL of 5% SDS followed by 2 μL of 250 mM EDTA (pH 8.0). Proteinase K was added (2 μL of a 0.8 mg/mL solution), and reaction mixtures were incubated at 45 °C for 30 min to digest the enzyme. Samples were mixed with 2 μL of loading buffer and heated at 45 °C for 2 min prior to electrophoresis in 1% agarose gels in 40 mM Tris-acetate (pH 8.3), and 2 mM EDTA containing 0.5 μg/mL ethidium bromide. DNA bands were visualized by midrange ultraviolet light and quantified using an Alpha Innotech digital imaging system (Protein Simple). Single-stranded DNA cleavage was monitored by the conversion of negatively supercoiled to nicked plasmid molecules.

In experiment [5] the target is T4, N. gonorrhoeae gyrase GyrA^S91F (Neisseria gonorrhoeae, UniProt P48371, S91F).
T4 construct: His; made in house
T4 sequence (P48371 whole entry S91F): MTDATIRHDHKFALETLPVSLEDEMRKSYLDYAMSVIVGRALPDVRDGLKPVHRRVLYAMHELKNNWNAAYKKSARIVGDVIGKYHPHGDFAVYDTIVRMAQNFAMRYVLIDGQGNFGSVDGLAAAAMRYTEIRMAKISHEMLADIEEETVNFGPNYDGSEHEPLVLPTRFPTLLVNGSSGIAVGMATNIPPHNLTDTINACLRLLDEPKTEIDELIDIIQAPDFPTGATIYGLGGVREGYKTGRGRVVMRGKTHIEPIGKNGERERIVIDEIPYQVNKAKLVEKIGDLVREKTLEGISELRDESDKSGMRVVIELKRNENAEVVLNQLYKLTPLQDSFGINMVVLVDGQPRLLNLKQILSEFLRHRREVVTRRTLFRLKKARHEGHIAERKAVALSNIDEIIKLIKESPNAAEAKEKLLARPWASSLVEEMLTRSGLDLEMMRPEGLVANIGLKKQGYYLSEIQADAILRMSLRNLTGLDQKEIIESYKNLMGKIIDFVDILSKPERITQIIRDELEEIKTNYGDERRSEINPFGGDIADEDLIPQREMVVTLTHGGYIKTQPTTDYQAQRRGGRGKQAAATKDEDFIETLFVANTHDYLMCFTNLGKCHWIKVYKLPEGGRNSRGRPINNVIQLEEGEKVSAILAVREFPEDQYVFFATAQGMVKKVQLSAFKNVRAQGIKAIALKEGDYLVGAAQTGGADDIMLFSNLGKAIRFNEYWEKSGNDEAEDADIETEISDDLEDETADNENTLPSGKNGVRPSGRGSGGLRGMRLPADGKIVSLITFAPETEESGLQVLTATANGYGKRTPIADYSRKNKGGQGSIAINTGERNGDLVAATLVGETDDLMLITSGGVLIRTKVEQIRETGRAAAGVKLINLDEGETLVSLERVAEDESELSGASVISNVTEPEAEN
T4 sequence (P22118 whole entry partner): as the sequence (P22118 whole entry partner) above
In words: DNA cleavage assay, GyrA^S91F gyrase. The format is biochemical. Here is the method:
as §4, §5

Experiment [6] has as its system uncomplicated urogenital gonorrhea. Set-up: method as in recent phase III clinical trial. As to conditions: vs intramuscular ceftriaxone plus oral azithromycin, ref recent phase III clinical trial; cited from earlier work.
Experiment [7] has as its target N. gonorrhoeae topoisomerase IV ParC^E91G (Neisseria gonorrhoeae, UniProt P48374, E91G). The experiment can be described thus: Topoisomerase IV-catalyzed DNA decatenation assay, ParC^E91G. The format is biochemical. Set-up: His; made in house. Here is the method: as §3

Structures are written as SMILES. pEC50, pIC50: −log10 of the molar value. Entries after “also recorded” stand apart in the source; their conditions may differ.

N. gonorrhoeae topoisomerase IV ParC^E91G, sequence (P48374 whole entry E91G): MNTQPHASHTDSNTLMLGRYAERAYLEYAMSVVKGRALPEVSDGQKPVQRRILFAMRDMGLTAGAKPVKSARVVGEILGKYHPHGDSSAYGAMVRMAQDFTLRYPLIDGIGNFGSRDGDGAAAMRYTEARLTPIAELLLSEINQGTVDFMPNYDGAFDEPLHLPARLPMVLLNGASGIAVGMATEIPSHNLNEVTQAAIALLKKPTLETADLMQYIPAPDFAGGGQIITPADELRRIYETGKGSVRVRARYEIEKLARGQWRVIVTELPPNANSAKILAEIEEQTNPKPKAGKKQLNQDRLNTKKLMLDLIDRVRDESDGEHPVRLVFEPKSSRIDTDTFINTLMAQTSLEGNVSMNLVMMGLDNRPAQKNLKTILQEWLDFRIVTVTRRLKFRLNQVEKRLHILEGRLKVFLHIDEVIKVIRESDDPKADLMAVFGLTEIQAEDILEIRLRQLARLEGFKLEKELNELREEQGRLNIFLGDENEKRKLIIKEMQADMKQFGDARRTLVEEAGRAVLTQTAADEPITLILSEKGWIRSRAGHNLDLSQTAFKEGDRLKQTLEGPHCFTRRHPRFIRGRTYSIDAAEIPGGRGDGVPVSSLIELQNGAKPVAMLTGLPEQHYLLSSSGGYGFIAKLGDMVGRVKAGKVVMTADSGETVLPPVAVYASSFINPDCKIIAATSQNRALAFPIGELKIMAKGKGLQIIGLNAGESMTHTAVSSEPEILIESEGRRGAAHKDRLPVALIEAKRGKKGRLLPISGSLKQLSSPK

With `O=c1ccc2ncc(=O)n3c2n1C[C@H]3CN1CCC(NCc2cc3c(cn2)OCCC3)CC1` [gepotidacin], the negative-log IC50 (pIC50) was < 4.00 in experiment [1]; 5.70 in experiment [2] (GyrA D95G gyrase, read-out: IC50, inhibition of DNA supercoiling); 5.82 in experiment [7]. In experiment [2] (GyrA D95G vs WT), the “fold lower supercoiling IC50 vs WT gyrase” value is given as ~2.6 fold. Also, the “fold greater potency (IC50) against topoisomerase IV over gyrase” value in experiment [3] is ~2.8 fold. The “Adj-Max Cleavage, single-stranded DNA breaks” value in experiment [4] was found to be 4.9%; in experiment [5], 5.5%. Further, the pEC50 in experiment [4] (GyrA A92T gyrase, read-out: CC50, single-stranded DNA cleavage) was 6.30; in experiment [5] (GyrA S91F gyrase, read-out: CC50, single-stranded DNA cleavage), 4.76. In addition, the “fold decrease of adjusted maximal DNA cleavage vs WT” value in experiment [4] (GyrA A92T vs WT) is ~3.5 fold; in experiment [5] (GyrA S91F vs WT) it was ~3.1 fold. Also, in experiment [6], the “outcome of phase III clinical trial” value is reported as “met its primary efficacy end point; also recorded: noninferiority”.
